Test results taken from PubChem BioAssay AID330 (DTP/NCI, 2004).
Where “and” joins values, the source holds several entries; their conditions need not be identical. Equal values may be shown once. Toxic doses and inconclusive results are not listed.

System: P388 leukemia ip, CD2F1 mice, survival T/C
Test: NCI In Vivo Anticancer Drug Screen. Data for tumor model P388 Leukemia (intraperitoneal) in CD2F1 (CDF1) mice
Settings: endpoint: median survival time, higher = longer survival
Procedure, shortened: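 Mice carrying the transplanted tumor received test compound or vehicle. Survival was recorded in each group, and the value is the treated-group measurement divided by that of the vehicle-treated control group.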

[1] = dose: 6.25 mg/kg/injection, schedule: Q01DX009 (ip), vehicle: water
[2] = dose: 12.5 mg/kg/injection, schedule: Q01DX009 (ip), vehicle: water
[3] = dose: 50.0 mg/kg/injection, schedule: Q01DX009 (ip), vehicle: water
[4] = dose: 50.0 mg/kg/injection, schedule: Q01DX009 (ip), vehicle: Klucel (hydroxypropylcellulose) (HPC)
[5] = dose: 100.0 mg/kg/injection, schedule: Q01DX009 (ip), vehicle: Klucel (hydroxypropylcellulose) (HPC)
[6] = dose: 200.0 mg/kg/injection, schedule: Q01DX009 (ip), vehicle: Klucel (hydroxypropylcellulose) (HPC)
[7] = dose: 12.5 mg/kg/injection, schedule: Q01DX005 (ip), vehicle: Klucel (hydroxypropylcellulose) (HPC)
[8] = dose: 25.0 mg/kg/injection, schedule: Q01DX005 (ip), vehicle: Klucel (hydroxypropylcellulose) (HPC)
[9] = dose: 50.0 mg/kg/injection, schedule: Q01DX005 (ip), vehicle: saline with Tween-80
[10] = dose: 100.0 mg/kg/injection, schedule: Q01DX005 (ip), vehicle: saline with Tween-80
[11] = dose: 200.0 mg/kg/injection, schedule: Q01DX005 (ip), vehicle: saline with Tween-80
[12] = dose: 25.0 mg/kg/injection, schedule: Q01DX009 (ip), vehicle: water
[13] = dose: 100.0 mg/kg/injection, schedule: Q01DX001 (ip), vehicle: saline with Tween-80
[14] = dose: 200.0 mg/kg/injection, schedule: Q01DX001 (ip), vehicle: saline with Tween-80
[15] = dose: 400.0 mg/kg/injection, schedule: Q01DX001 (ip), vehicle: saline with Tween-80
[16] = dose: 100.0 mg/kg/injection, schedule: Q04DX003 (ip), vehicle: saline
[17] = dose: 200.0 mg/kg/injection, schedule: Q04DX003 (ip), vehicle: saline
[18] = dose: 400.0 mg/kg/injection, schedule: Q04DX003 (ip), vehicle: saline
[19] = dose: 50.0 mg/kg/injection, schedule: Q01DX005 (ip), vehicle: Klucel (hydroxypropylcellulose) (HPC)
[20] = dose: 100.0 mg/kg/injection, schedule: Q01DX005 (ip), vehicle: Klucel (hydroxypropylcellulose) (HPC)
[21] = dose: 200.0 mg/kg/injection, schedule: Q01DX005 (ip), vehicle: Klucel (hydroxypropylcellulose) (HPC)
[22] = dose: 100.0 mg/kg/injection, schedule: Q01DX009 (ip), vehicle: saline with Tween-80

Structure (SMILES): COP(=O)(OC)C(=[N+]=[N-])c1ccccc1
- T/C [1]: 98 % of control
- T/C [2]: 106 % of control
- T/C [3]: 93 % of control
- T/C (dose: 100.0 mg/kg/injection, schedule: Q01DX009 (ip), vehicle: water): 98 % of control
- T/C (dose: 200.0 mg/kg/injection, schedule: Q01DX009 (ip), vehicle: water): 90 % of control

Structure (SMILES): Cc1cc2c(cc1C)NC(=O)C(NC(=O)c1ccc(Cl)cc1)C=N2 (stereo not drawn)
- T/C (dose: 60.0 mg/kg/injection, schedule: Q01DX005 (ip), vehicle: Klucel (hydroxypropylcellulose) (HPC)): 92 % of control
- T/C (dose: 120.0 mg/kg/injection, schedule: Q01DX005 (ip), vehicle: Klucel (hydroxypropylcellulose) (HPC)): 93 % of control
- T/C (dose: 240.0 mg/kg/injection, schedule: Q01DX005 (ip), vehicle: Klucel (hydroxypropylcellulose) (HPC)): 93 % of control

Structure (SMILES): CCOC(=O)N1CCN(CC(O)Cn2c(=O)c3c(nc(N4CCN(C(=O)OCC)CC4)n3C)n(C)c2=O)CC1 (stereo not drawn)
- T/C [4]: 100 % of control
- T/C [5]: 101 % of control
- T/C [6]: 99 % of control

Structure (SMILES): C(COCC1CO1)OCC1CO1 (stereo not drawn)
- T/C (dose: 12.5 mg/kg/injection, schedule: Q01DX009 (ip), vehicle: saline): 120 % of control
- T/C (dose: 50.0 mg/kg/injection, schedule: Q01DX009 (ip), vehicle: saline): 150 % of control

Structure (SMILES): C(=C\c1ccc2cc(C3=NCCN3)[nH]c2c1)/c1ccc(Oc2ccc(C3=NCCN3)cc2)cc1 (tested in a mixture with another compound)
- T/C (dose: 6.25 mg/kg/injection, schedule: Q01DX005 (ip), vehicle: Klucel (hydroxypropylcellulose) (HPC)): 111 % of control
- T/C [7]: 97 % of control
- T/C [8]: 100 % of control

Structure (SMILES): CC(CCC(=O)O)(c1ccc(OC(=O)Nc2ccc([N+](=O)[O-])cc2)cc1)c1ccc(OC(=O)Nc2ccc([N+](=O)[O-])cc2)cc1
- T/C [9]: 111 % of control
- T/C [10]: 96 % of control
- T/C [11]: 93 % of control

Structure (SMILES): Clc1cc2c(c(CSc3nc4ccccc4n4cccc34)c1)OCOC2
- T/C [4]: 96 % of control
- T/C [5]: 96 % of control
- T/C [6]: 98 % of control

Structure (SMILES): Oc1ccc(C2Oc3ccccc3C=C2c2ccccc2)cc1 (stereo not drawn)
- T/C [9]: 94 % of control
- T/C [10]: 89 % of control
- T/C [11]: 96 % of control

Structure (SMILES): CC(C)=CCC(OC(=O)C=C(C)C)c1cc(O)c2c(O)ccc(O)c2c1O.[Ni] (stereo not drawn)
- T/C (dose: 100.0 mg/kg/injection, schedule: Q04DX002 (ip), vehicle: saline with Tween-80): 111 % of control
- T/C (dose: 200.0 mg/kg/injection, schedule: Q04DX002 (ip), vehicle: saline with Tween-80): 105 % of control
- T/C (dose: 400.0 mg/kg/injection, schedule: Q04DX002 (ip), vehicle: saline with Tween-80): 114 % of control

Structure (SMILES): NNC(=O)c1ccccc1N
- T/C [12]: 96 % of control
- T/C [3]: 96 % of control

Structure (SMILES): c1ccc2c(OCC3CO3)c3ccccc3nc2c1 (stereo not drawn)
- T/C [9]: 118 % of control
- T/C [10]: 108 % of control
- T/C [11]: 102 % of control

Structure (SMILES): CCOCCC(=O)NCC(=O)NC1C(C)OC(Nc2ncnc3nc[nH]c23)C(O)C1O (stereo not drawn)
- T/C (dose: 3.12 mg/kg/injection, schedule: Q01DX009 (ip), vehicle: water): 94 % of control
- T/C [1]: 100 % of control
- T/C [2]: 96 % of control
- T/C [12]: 116 % of control
- T/C [3]: 100 % of control

Structure (SMILES): O=C(O)c1cc(-c2cccc3ccccc23)nc2ccccc12
- T/C [9]: 94 % of control
- T/C [10]: 94 % of control
- T/C [11]: 94 % of control

Structure (SMILES): COC(=O)C1(C)CCCC2(C)c3cc(OC(C)=O)c(C(C)C)cc3CCC12 (stereo not drawn)
- T/C (dose: 100.0 mg/kg/injection, schedule: Q01DX001 (ip), vehicle: saline): 100 % of control
- T/C (dose: 200.0 mg/kg/injection, schedule: Q01DX001 (ip), vehicle: saline): 106 % of control
- T/C (dose: 400.0 mg/kg/injection, schedule: Q01DX001 (ip), vehicle: saline): 105 % of control

Structure (SMILES): CSc1cccc(NC(=O)OCCOc2ccc(Cl)cc2)c1
- T/C [4]: 102 % of control
- T/C [5]: 100 % of control
- T/C [6]: 92 % of control

Structure (SMILES): CNC(=O)c1n[nH]c(C)c1N
- T/C (dose: 12.5 mg/kg/injection, schedule: Q04DX003 (ip), vehicle: water): 94 % of control
- T/C (dose: 25.0 mg/kg/injection, schedule: Q04DX003 (ip), vehicle: water): 100 % of control
- T/C (dose: 50.0 mg/kg/injection, schedule: Q04DX003 (ip), vehicle: water): 103 % of control
- T/C (dose: 100.0 mg/kg/injection, schedule: Q04DX003 (ip), vehicle: water): 103 % of control
- T/C (dose: 200.0 mg/kg/injection, schedule: Q04DX003 (ip), vehicle: water): 99 % of control

Structure (SMILES): CCOc1c(N2CCOCC2)c(=O)c1=O
- T/C [13]: 100 % of control
- T/C [14]: 100 % of control
- T/C [15]: 90 % of control

Structure (SMILES): O=S(=O)(O)c1cccnc1
- T/C (dose: 100.0 mg/kg/injection, schedule: Q01DX009 (ip), vehicle: saline): 104 % of control
- T/C [16]: 100 % of control
- T/C (dose: 200.0 mg/kg/injection, schedule: Q01DX009 (ip), vehicle: saline): 104 % of control
- T/C [17]: 95 % of control
- T/C (dose: 400.0 mg/kg/injection, schedule: Q01DX009 (ip), vehicle: saline): 95 % of control
- T/C [18]: 100 % of control

Structure (SMILES): O=S(=O)(c1ccccc1)N1CCCCN(S(=O)(=O)c2ccccc2)COC1
- T/C [19]: 104 % of control
- T/C [20]: 102 % of control
- T/C [21]: 102 % of control

Structure (SMILES): CC[C@@]12C[C@]1(C(=O)OC)C(=O)N1CCc3c([nH]c4ccccc34)[C@H]12
- T/C [19]: 90 % of control
- T/C [20]: 96 % of control
- T/C [21]: 91 % of control

Structure (SMILES): OC(c1ccccc1)(C(F)(F)F)C(F)(F)F
- T/C (dose: 50.0 mg/kg/injection, schedule: Q01DX009 (ip), vehicle: saline with Tween-80): 110 % of control
- T/C [22]: 92 % of control

Structure (SMILES): Nc1cc(Cl)ccc1[N+](=O)[O-]
- T/C [22]: 108 % of control
- T/C (dose: 200.0 mg/kg/injection, schedule: Q01DX009 (ip), vehicle: saline with Tween-80): 99 % of control
- T/C (dose: 400.0 mg/kg/injection, schedule: Q01DX009 (ip), vehicle: saline with Tween-80): 89 % of control

Structure (SMILES): O=C1Cc2ccccc2N1C(=O)c1cccc(Br)c1
- T/C (dose: 100.0 mg/kg/injection, schedule: Q01DX001 (ip), vehicle: Klucel (hydroxypropylcellulose) (HPC)): 98 % of control
- T/C (dose: 200.0 mg/kg/injection, schedule: Q01DX001 (ip), vehicle: Klucel (hydroxypropylcellulose) (HPC)): 95 % of control

Structure (SMILES): OC(CCl)c1ccc2ccc3c(c2c1)Nc1ccccc1S3 (stereo not drawn)
- T/C (dose: 100.0 mg/kg/injection, schedule: Q04DX003 (ip), vehicle: Klucel (hydroxypropylcellulose) (HPC)): 107 % of control
- T/C (dose: 200.0 mg/kg/injection, schedule: Q04DX003 (ip), vehicle: Klucel (hydroxypropylcellulose) (HPC)): 104 % of control
- T/C (dose: 400.0 mg/kg/injection, schedule: Q04DX003 (ip), vehicle: Klucel (hydroxypropylcellulose) (HPC)): 102 % of control

Structure (SMILES): CCOC(=O)CC1(C)C(=O)CCCC1=O
- T/C [16]: 101 % of control
- T/C [17]: 100 % of control
- T/C [18]: 100 % of control

Structure (SMILES): CC(CNC(Cc1ccccc1)c1ccccc1)NC(Cc1ccccc1)c1ccccc1 (stereo not drawn)
- T/C [7]: 110 % of control
- T/C [8]: 102 % of control
- T/C [19]: 105 % of control and 110 % of control

Structure (SMILES): C[C@]12C=CC(=O)C=C1CC[C@@H]1[C@@H]2[C@@H](O)C[C@@]2(C)[C@H]1CC[C@]2(O)C(=O)CO
- T/C [19]: 106 % of control
- T/C [20]: 100 % of control
- T/C [21]: 91 % of control
- T/C (dose: 400.0 mg/kg/injection, schedule: Q01DX005 (ip), vehicle: Klucel (hydroxypropylcellulose) (HPC)): 105 % of control

Structure (SMILES): COc1ccc(NCc2ccc(C)cc2)cc1
- T/C [13]: 100 % of control
- T/C [14]: 108 % of control
- T/C [15]: 107 % of control

Structure (SMILES): CCOc1cccc(/C=N/NC(=O)C(=O)Nc2ccc(Cl)c([N+](=O)[O-])c2)c1O
- T/C [9]: 100 % of control
- T/C [10]: 89 % of control
- T/C [11]: 90 % of control
